# Assay results: article PMC9181982, “Biphenyl Ether Analogs Containing Pomalidomide as Small-Molecule Inhibitors of the Programmed Cell Death-1/Programmed Cell Death-Ligand 1 Interaction” (Molecules, 2022)
# Tests used:
# PD-1/PD-L1 complex = target: T1, PD-1/PD-L1 complex (Homo sapiens, UniProt Q9NZQ7); experiment: HTRF (homogeneous time-resolved fluorescence) PD-1/PD-L1 binding assay (Cis-Bio); settings: 5 nM hPD-L1, 50 nM hPD-1
# T1 construct: purchased Cis-Bio
# Method: To validate the activity toward PD-L1 of our compounds, we carried out an HTRF (homogeneous time-resolved fluorescence) experiment at two concentrations of the ligand (5 µM and 0.5 µM) (Table 1).
# HTRF was carried out using a certified Cis-Bio assay according to the manufacturer’s guidelines. The experiments were carried out at 5 nM of h-L1 and 50 nM of hPD-1 in the final formulation at the 20 µL final volume in the well. To determine the half maximal inhibitory concentrations (IC50) of the tested compounds, the measurements were carried out on two individual dilution series unless stated otherwise. After mixing all the components according to the Cis-Bio protocol, the plate was left for 2 h incubation at room temperature followed by the TR-FRET measurement on a Tecan Spark 20M. […] The collected data was background-subtracted from the negative control, normalized on the positive control, averaged, and fitted with the normalized Hill’s equation to determine the IC50 value using Mathematica 12 (Princeton, NJ, USA).
# PD-L1 protein = target: T2, PD-L1 protein (Homo sapiens, UniProt Q9NZQ7); experiment: 1H NMR binding analysis, PD-L1 protein titrated with ligand; settings: for Binding to PD-L1 by 1H NMR titration: PBS pH 7.4, 300 K, protein–ligand ratios up to 1:10
# T2 construct: PD-L1 gene (amino acids 18–239); made in house; host or cells: E. coli BL21
# Method: Apart from the HTRF assay, we performed the NMR [33, 34] binding analysis by recording the ^1H spectrum of the PD-L1 protein titrated with compound 4 (Figure 1).
# The E. coli strain BL21 was transformed with a pET-21b plasmid carrying the PD-L1 gene (amino acids 18–239). The bacteria were cultured in LB at 37 °C until OD600nm of 0, 6 when the recombinant protein production was induced with 1 mM IPTG. The protein production continued overnight. The inclusion bodies were collected by centrifugation, washed twice with 50 mM Tris HCl, pH 8.0, containing 200 mM NaCl, 10 mM EDTA, 10 mM 2-mercaptoethanol, and 0.5% Triton X-100, followed by a single wash with the same buffer but with no Triton X-100. The washed inclusion bodies were resuspended overnight in 50 mM Tris HCl, pH 8.0, 6 M GuHCl, 200 mM NaCl, and 10 mM 2-mercaptoethanol and clarified with centrifugation. Refolding of PD-L1 was performed by dropwise dilution into 0.1 M Tris HCl, pH 8.0, containing 1 M L-arginine hydrochloride, 0.25 mM oxidized glutathione, and 0.25 mM reduced glutathione. The refolded protein was dialyzed three times against 10 mM Tris HCl, pH 8.0, containing 20 mM NaCl and purified by size exclusion chromatography using Superdex 75 and a dialysis buffer. The quality of the refolded protein was evaluated by SDS-PAGE and NMR.
# NMR spectra were recorded in PBS, pH 7.4, containing 10% (v/v) of D2O added to the samples to provide the lock signal. Water suppression was carried out using the WATERGATE sequence. All the spectra were recorded at 300 K using a Bruker Avance 600 MHz spectrometer with the Cryo-Platform. The NMR spectrum was recorded at three different ligand/protein ratios from 0 to 10. The samples were prepared by adding small amounts of a 50 mM ligand stock solution in DMSO to the protein solution (0.20 mL) of the PD-L1 fragment at a concentration of 0.14 mM. The acquisition parameters for each spectrum were as follows: size of FID32768, number of scans: 32. The spectra were visualized using TopSpin 4.0.2. (Bruker, Billerica, MA, USA)
# [1] = test system: PD-1/PD-L1 blockade, Jurkat effector cells / CHO/TCRAct/PD-L1 cells; experiment: Immune checkpoint blockade (ICB) assay (Promega): Jurkat ECs co-cultured with CHO/TCRAct/PD-L1 cells, NFAT luciferase readout; format: cell-based, human
# Method: In order to explore the bioactivity of the synthesized compounds, a well-recognized immune checkpoint blockade (ICB) assay was performed. In the assay, artificial T cells, the Jurkat effector cells (Jurkat ECs), i.e., the Jurkat T cells overexpressing PD-1 and luciferase-coding gene under the control of the TCR-inducible NFAT response element, are contacted with artificial antigen-presenting CHO/TCRAct/PD-L1 cells, as illustrated in [31]. The latter is the CHO cells equipped with the TCR activator molecule, which delivers activation of Jurkat ECs, and also the PD-L1 protein, which provides a negative signal towards the activation of Jurkat ECs. Upon the blockade of the PD-1/PD-L1 interaction, activation of Jurkat ECs is increased, as we have shown before for several classes of therapeutic antibodies and small molecules.
# The human PD-L1-expressing CHO-K1 cells overexpressing TCR activator (CHO/TCRAct/PD-L1) cells and Jurkat ECs T cells overexpressing PD-1 and carrying a luciferase reporter gene under the control of the Nuclear Factor of Activated T cells Response Element (NFAT-RE) were obtained from Promega and cultured in an RPMI-1640 medium (Biowest, Nuaillé, France) supplemented with 10% fetal bovine serum (FBS, Biowest, Nuaillé, France) and […] L-glutamine (Biowest, Nuaillé, France). G418 (250 µg/mL, InvivoGen, San Diego, CA, USA) and Hygromycin B Gold (50 µg/mL, InvivoGen, San Diego, CA, USA) were also added to the culture medium as selection antibiotics. CAKI 2, LNCap, PC-3, and MDA-MB-231 cells were purchased from the European Collection of Authenticated Cell Cultures (ECACC) and cultured according to the provided protocol.
# For the analysis of biological activity of the analyzed compounds, an immune checkpoint blockade (ICB) assay was performed. For this, the culture of Jurkat effector cells (Jurkat-ECs) and […] was carried out. The assay was performed according to the protocol described in our previous works. All the experiments were performed three times as independent experiments.
# Figure 2 Bioactivity of the indicated compounds. (A,B) The activity was monitored with a cell-based immune checkpoint blockade (ICB) assay. Jurkat ECs were contacted with pre-seeded CHO/TCRAct/PD-L1 cells in the presence of the indicated concentrations of the compounds (A) or durvalumab (B) as a positive control. The cells were co-cultured for 6 h and the luminescence signal was measured following the addition of the Bio-Glo substrate. The graphs show fold induction calculated versus either DMSO-treated (for small molecules) or untreated (for durvalumab) control (ctrl) cells. The results are mean ± SD from three independent experiments. […] (C) Analysis of the expression of PD-L1 in four human cancer cell lines compared to PD-L1-overexpressing CHO/TCRAct/PD-L1 cells. (D) Analysis of the expression of PD-L1 in MDA-MB-231 cells treated with either 4 or 5 compounds for 6 or 24 h.
# T2 sequence (Q9NZQ7 18-239): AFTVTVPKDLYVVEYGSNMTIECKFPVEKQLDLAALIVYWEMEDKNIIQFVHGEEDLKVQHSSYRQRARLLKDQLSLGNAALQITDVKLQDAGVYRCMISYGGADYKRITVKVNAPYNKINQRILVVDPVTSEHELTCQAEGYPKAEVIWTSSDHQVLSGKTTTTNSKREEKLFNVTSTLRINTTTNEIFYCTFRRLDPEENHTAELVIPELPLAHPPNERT
# T1 sequence (Q9NZQ7 19-238 limits assumed, one chain of several): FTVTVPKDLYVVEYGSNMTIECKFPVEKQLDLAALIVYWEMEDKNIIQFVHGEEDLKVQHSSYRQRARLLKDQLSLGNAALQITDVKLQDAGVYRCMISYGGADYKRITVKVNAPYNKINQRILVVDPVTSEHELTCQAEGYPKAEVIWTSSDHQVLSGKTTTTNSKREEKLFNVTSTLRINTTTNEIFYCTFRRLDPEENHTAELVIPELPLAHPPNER
"inhibition at 0.5 µM (PD-1/PD-L1 complex; 0.5 µM ligand, read-out: HTRF: Percentage of the Dissociated PD-1/PD-L1 Complex, 0.5 µM Ligand Conc.)","inhibition at 5 µM (PD-1/PD-L1 complex; 5 µM ligand, read-out: HTRF: Percentage of the Dissociated PD-1/PD-L1 Complex, 5 µM Ligand Conc.)","Protein precipitation during NMR titration (PD-L1 protein; 1H NMR titration, compound 6 at protein–ligand ratio 1:10)","HTRF: Percentage of the Dissociated PD-1/PD-L1 Complex, 0.5 µM Ligand Conc. (PD-1/PD-L1 complex; 0.5 µM ligand)","HTRF: Percentage of the Dissociated PD-1/PD-L1 Complex, 5 µM Ligand Conc. (PD-1/PD-L1 complex; 5 µM ligand)",Compound,Binding to PD-L1 by 1H NMR titration (PD-L1 protein),Promega Assay (active / not active) ([1]; cell-based PD-1/PD-L1 blockade bioassay),"Activation of Jurkat ECs in the ICB assay ([1]; 6 h co-culture, fold induction vs control)"
13.8%,25.9%,massive protein precipitation,,,"Cc1c(COc2cc(OCc3cccc(C#N)c3)c(C(NCCCNc3cccc4c3C(=O)N(C3CCC(=O)NC3=O)C4=O)c3nnnn3C(C)(C)C)cc2Cl)cccc1-c1ccc2c(c1)OCCO2 (stereo not drawn) [compound 6, 3-((2-((1-(tert-butyl)-1H-tetrazol-5-yl)((3-((2-(2,6-dioxopiperidin-3-yl)-1,3-dioxoisoindolin-4-yl)amino)propyl)amino)methyl)-4-chloro-5-((3-(2,3-dihydrobenzo[b][1,4]dioxin-6-yl)-2-methylbenzyl)oxy)phenoxy)methyl)benzonitrile]",does not present changes in the PD-L1 NMR protein spectra,Not active,
,,,11.4%,20.1%,Nc1cccc2c1C(=O)N(C1CCC(=O)NC1=O)C2=O (stereo not drawn) [pomalidomide],lack of interaction,,did not increase the activation of Jurkat ECs
